The text below walks through data of patent US20070270421A1, “Novel pyridine Derivative and Pyrimidine Derivative (1)” (priority 2004, published 2007).

The assay deals with Human umbilical vein endothelial cells (HUVECs). In words: Inhibitory activity against sandwich tube formation by vascular endothelial cells stimulated with hepatocyte growth factor. Format: cell-based. To be noted: HUVEC in collagen gel, 30 ng/ml HGF, fourth day, total tube length, read-out: IC50 (concentration necessary to inhibit the tube formation by 50%). Here is the method: Human umbilical vein endothelial cells (HUVECs) were isolated according to the reported method (Shin Seikagaku Jikken Koza, “Cell culturing techniques”, p 197-202), and then cultured in a 5% CO2 incubator (37° C.) using EGM-2 medium (purchased from Clonetics) until the cells reached confluency.
To each well of a 24-well plate was added 0.4 ml of an ice-cold mixture of collagen:5×RPMI1640:reconstitution buffer (all purchased from Nitta Gelatin, Inc.) at 7:2:1, followed by incubating in a 5% CO2 incubator (37° C.) for 40 min to allow the solution to gel. Then, each well was supplied with 1 ml of the cell suspension of HUVEC (1-1.2×10^5 cells were used, though the cell number varied slightly depending on the lot of the HUVEC to be used) diluted with a serum free medium for endothelial cell culture (SFM, purchased from GIBCO RBL) supplemented with 10 ng/ml of EGF, followed by culturing in a 5% CO2 incubator (37° C.) overnight. […] The tube formed in the collagen gel of each well was stained with MTT, and then the tube image was loaded in a computer (Macintosh) to determine the total length of the tube by an image analysis software “Angiogenesis quantification software” (purchased from Kurabo). The ratio of the total length of a tube formed in a well supplied with the test substance relative to a tube formed in a well supplied with no test substance was expressed as a percentage. […]

For `O=C(Cc1ccc(F)cc1)NC(=S)Nc1ccc(Oc2ccnc(NC(=O)N3CCCC3)c2)c(F)c1` [Example 13, 4-(2-Fluoro-4-{3-[2-(4-fluorophenyl)acetyl]thioureido}phenoxy)-2-[(pyrrolidin-1-yl)carbonylamino]pyridine], the IC50 stood at 0.13 µM.
